Laboratory results from paper PMC7751416, “Novel positive allosteric modulators of A2B adenosine receptor acting as bone mineralisation promoters” (Journal of Enzyme Inhibition and Medicinal Chemistry, 2020).

Assays:
MSCs [1] = assay: Quantification of mineralisation (Alizarin Red staining) by MSCs-derived osteoblasts; assay type: cell-based, human; conditions: MSCs 15 days in osteogenic medium, mean ± SEM
Protocol: Human bone marrow derived MSCs were cultured in normal growth medium (MSCGM, Sigma Aldrich), plated (5.000 cells/cm^2) in 75-cm^2 flasks and incubated at 37 °C in 5% CO2 and 95% air. The medium was changed to remove non adherent cells every 3 to 4 days and the cells were used at passages 2 to 6.
MSCs were seeded at a density of 3300 cells/cm^2 and maintained in growth medium for 2 days. Then, medium was replaced with Mesenchymal Stem Cell Osteogenic Differentiation Medium (Cat. N. C-28013, Sigma Aldrich) and treated in the absence (control) or in the presence of BAY60-6583 (5 nM) alone or in combination with the new compounds. Treatments were repeated every 3 days and the mineralisation was quantified after 15 days of treatment. The rate of mineralisation was quantified using alizarin red staining as previously reported. Briefly, cells were washed with PBS, fixed (4% formaldehyde in PBS) for 15 min and washed three times with PBS. Then, Alizarin Red S (1:100 in distilled water, adjusted to pH 4.2 and filtered) was added and incubated for 20 min, at the end cells were washed (five times) in 50% ethanol and air dried. For quantification, cells were destained overnight in 10% (w/v) cetylpyridinium chloride at room temperature and the absorbance was read using a spectrophotometer (Victor Wallac 2, Perkin Elmer) at 562 nm.
Figure 1. Effects of the new compounds on mineralisation mediated by MSCs-derived osteoblast. MSCs were cultured for 15 days in osteogenic medium with compounds at 1 μM concentration in the presence (A) or in the absence (B) of the A2B AR agonist BAY60-6583 (5 nM). After treatments, cells were stained with Alizarin Red and mineralisation was evaluated as reported in Experimental section. Data are expressed as percentage of mineralisation versus the CTRL set to 100% and represent the mean ± SEM of at least two independent experiments. Each experiment was performed in duplicate. *p < 0.05; **p < 0.01; ***p < 0.001 vs. CTRL. #p < 0.05; ###p < 0.001 vs. BAY60-6583 or NECA.

[2] = target: T1, human A1 adenosine receptors (Homo sapiens, UniProt P30542); assay: Human A1 adenosine receptor competition binding ([3H]DPCPX, CHO cell membranes); conditions: radioligand binding, A1 AR
T1 construct: K. N. Klotz, Wurzburg University (gift); host or cells: CHO cells, stably transfected; membranes used
T1 sequence (P30542 1-326): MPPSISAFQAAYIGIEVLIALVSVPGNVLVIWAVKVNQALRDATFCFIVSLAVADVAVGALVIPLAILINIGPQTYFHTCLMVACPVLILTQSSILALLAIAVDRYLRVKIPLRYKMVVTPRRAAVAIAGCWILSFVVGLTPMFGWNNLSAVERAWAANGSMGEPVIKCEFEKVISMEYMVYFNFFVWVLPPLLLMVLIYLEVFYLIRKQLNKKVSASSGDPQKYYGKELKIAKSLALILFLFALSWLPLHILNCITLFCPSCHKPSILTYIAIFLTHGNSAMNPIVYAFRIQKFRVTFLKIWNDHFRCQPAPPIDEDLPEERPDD
Protocol: (§1) ADA (Cat. N. 10102105001) was from Sigma Aldrich (Italy). All other reagents were from commercial sources and of the highest commercially available grade. CHO cells stably expressing human A1, A2A, A3 and A2B ARs were kindly supplied by Prof. K. N. Klotz, Wurzburg University, Germany. MSCs (Cat. N. SCC034) were purchased by Sigma Aldrich (Milan, Italy).
Competition binding experiments were performed as previously reported. […] R-PIA (50 µM) was used for the determination of non-specific binding.

[3] = target: T2, human A2A adenosine receptors (Homo sapiens, UniProt P29274); assay: Human A2A adenosine receptor competition binding ([3H]NECA, CHO cell membranes); conditions: radioligand binding, A2A AR
T2 construct: K. N. Klotz, Wurzburg University (gift); host or cells: CHO cells, stably transfected; membranes used
Protocol: as §1
Competition binding experiments were performed as previously reported. Briefly, membranes of A2A CHO cells were incubated at 25 °C for 90 min in 500 µL of buffer in the presence of [^3H]NECA (30 nM) and six different concentrations of the newly synthesised compounds. NECA (100 µM) was used for the determination of non-specific binding.

[4] = target: T3, human A3 adenosine receptors (Homo sapiens, UniProt P0DMS8); assay: Human A3 adenosine receptor competition binding ([3H]NECA, CHO cell membranes); conditions: radioligand binding, A3 AR
T3 construct: K. N. Klotz, Wurzburg University (gift); host or cells: CHO cells, stably transfected; membranes used
T3 sequence (P0DMS8 1-318): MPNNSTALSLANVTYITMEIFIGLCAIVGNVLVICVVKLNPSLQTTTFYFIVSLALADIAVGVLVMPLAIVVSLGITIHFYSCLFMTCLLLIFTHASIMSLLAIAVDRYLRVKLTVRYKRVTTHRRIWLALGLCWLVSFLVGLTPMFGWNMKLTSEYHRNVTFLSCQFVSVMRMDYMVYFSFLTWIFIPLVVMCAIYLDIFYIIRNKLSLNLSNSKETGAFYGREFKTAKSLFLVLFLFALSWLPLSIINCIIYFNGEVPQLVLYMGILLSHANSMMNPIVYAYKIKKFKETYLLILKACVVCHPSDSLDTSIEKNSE
Protocol: as §1
Competition binding experiments were performed as previously reported. Briefly, cell membranes of A3 CHO cells were incubated at 25 °C for 180 min in 500 µL of buffer in the presence of [^3H]NECA (30 nM) and six different concentrations of the newly synthesised compounds. NECA (100 µM) was used for the determination of non-specific binding.

human A2B AR = target: T4, human A2B AR (Homo sapiens, UniProt P29275); assay: Measurement of cyclic AMP levels in A2B AR CHO cells; assay type: cell-based
T4 construct: K. N. Klotz, Wurzburg University (gift); host or cells: CHO cells, stably transfected
T4 sequence (P29275 1-332): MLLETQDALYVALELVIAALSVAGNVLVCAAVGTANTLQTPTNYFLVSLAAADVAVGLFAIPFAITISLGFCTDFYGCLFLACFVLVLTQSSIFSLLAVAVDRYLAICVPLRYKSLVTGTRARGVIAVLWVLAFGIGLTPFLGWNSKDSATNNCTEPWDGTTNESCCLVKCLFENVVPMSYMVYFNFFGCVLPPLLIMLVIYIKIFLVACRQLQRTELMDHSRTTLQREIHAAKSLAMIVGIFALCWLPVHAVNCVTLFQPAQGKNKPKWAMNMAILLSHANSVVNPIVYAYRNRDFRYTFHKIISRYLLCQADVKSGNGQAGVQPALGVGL
Protocol: Intracellular cyclic AMP (cAMP) levels were measured using a competitive protein binding method, as previously reported[31] A2B AR CHO cells were seed at a density of 24 000 cell/cm^2 in a 24 multiwell plate. After 48 h, the medium was removed and the cells were incubated at 37 °C for 15 min with 500 µL of Dulbecco’s Modified Eagle Medium (DMEM) in the presence of ADA (1 U/mL) and the phosphodiesterase inhibitor Ro20-1724 (20 µM).
The agonist efficacy profile of the compounds at ARs was evaluated by assessing their ability to modulate intracellular cAMP levels in the absence of standard agonists. The antagonism profile of the new compounds was evaluated by assessing their ability to inhibit 100 nM NECA-mediated accumulation of cAMP. The new compounds were incubated 10 min before the addiction of the agonists. Then, cells were incubated in the reaction medium for 15 min at 37 °C. The reaction was stopped by the removal of the medium and the addition of 0.4 N HCl. After 30 min, lysates were neutralised with 4 N KOH and the suspension was centrifuged at 800 g for 5 min. For the determination of cAMP production, bovine adrenal cAMP-binding protein was incubated with [^3H]cAMP (2 nM) at 0 °C for 150 min in a total volume of 300 µL. Bound radioactivity was separated by rapid filtration. The radioactivity was measured by liquid scintillation spectrometry.
Figure 2. Effects of compound 9 as positive allosteric modulator of the A2B AR. A) Effects of 9 on NECA-mediated cAMP accumulation in human A2B AR-transfected CHO cells. CHO cells were treated with an EC50 NECA concentration (100 nM) in the absence or presence of different concentrations of the tested compound (1 nM–10 μM). […] CHO cells were treated with different NECA concentration (1 nM–10 μM) in the absence or presence of 9 (650 nM or 6.5 μM). After 15 min incubation, the reaction was stopped and the intracellular cAMP levels were quantified. The data are expressed as the percentage of cAMP/well versus the maximal NECA effect, which was set to 100% and represent the mean ± SEM of at least three different experiments. Each experiment was performed in duplicate.

MSCs [5] = system: MSCs; parameters: method as in PMID 25241343; conditions: read-out: EC50, potency on MSCs; cited from earlier work
[6] = compound 1 μM alone, in the absence of BAY60-6583
[7] = compound 1 μM in the presence of BAY60-6583 (5 nM)
[8] = NECA concentration-response curves (1 nM-10 μM) in absence or presence of 9 (650 nM and 6.5 µM)

T2 sequence (P29274 whole entry): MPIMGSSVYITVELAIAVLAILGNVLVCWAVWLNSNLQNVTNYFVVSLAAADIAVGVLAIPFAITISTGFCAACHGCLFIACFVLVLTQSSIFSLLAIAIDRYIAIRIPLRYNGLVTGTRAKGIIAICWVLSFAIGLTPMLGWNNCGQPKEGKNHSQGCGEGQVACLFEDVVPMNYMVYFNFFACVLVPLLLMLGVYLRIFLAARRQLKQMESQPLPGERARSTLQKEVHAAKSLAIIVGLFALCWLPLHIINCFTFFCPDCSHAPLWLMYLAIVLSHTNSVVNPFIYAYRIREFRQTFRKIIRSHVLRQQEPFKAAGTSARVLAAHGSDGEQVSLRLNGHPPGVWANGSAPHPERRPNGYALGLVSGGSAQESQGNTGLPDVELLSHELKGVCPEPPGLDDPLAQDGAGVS

SMILES | melting point [°C] | percentage of mineralisation versus the CTRL set to 100% (MSCs [1]; [6]) | percentage of mineralisation versus the CTRL set to 100% (MSCs [1]; [7]) [%] | other results
Cn1cc(C(=O)C(=O)c2ccccc2)c2ccccc21 [Compound 13, 1-(1-Methyl-1H-indol-3-yl)-2-phenyl-1,2-ethanedione] | 88 to 90 |  |  | 
Cn1cc(C(=O)C(=O)Nc2ccccc2)c2ccccc21 [Compound 6, N-Phenyl-2-(1-methyl-1H-indol-3-yl)glyoxylamide] | 167 to 169 |  |  | 
O=C(NCc1ccccc1)C(=O)c1cn(CCc2ccccc2)c2ccccc12 [Compound 5, N-Benzyl-2-(1-phenylethyl-1H-indol-3-yl)glyoxylamide] | 83 to 85 | 128.7 ± 3.6% | 152.3 ± 4.3 | 
O=C(Nc1ccccc1)C(=O)c1cn(CCc2ccccc2)c2ccccc12 [Compound 4] | 139 to 140 | 130.0 ± 6.8% | 179.2 ± 9.6 | 
O=C(NCc1ccc(Cl)cc1)C(=O)c1cc2ccccc2o1 [Compound 9, N-(4-Chlorobenzyl)-2-(benzofuran-2-yl)glyoxylamide] | 137 to 139 | 111.5 ± 4.6% | 156.8 ± 7.6 | Ki [2]: > 10000 nM; Ki [3]: > 10000 nM; Ki [4]: > 10000 nM; effect on efficacy of NECA in stimulating cAMP accumulation (human A2B AR; [8]): significantly enhanced the efficacy of NECA; effect on potency of NECA in stimulating cAMP accumulation (human A2B AR; [8]): without affecting agonist potency; EC50 (human A2B AR; compound 1 nM-10 µM in the presence of NECA 100 nM, human A2B AR-transfected CHO cells, read-out: EC50, positive allosteric modulation of A2B AR (NECA-mediated cAMP accumulation)): 636 ± 65.3 nM; % cAMP production (vs NECA 100 nM set to 100%), Alone (human A2B AR; compound 10 µM alone, CHO cells expressing human A2B AR, mean ± SEM): 2.7 ± 1.3%; % cAMP production (vs NECA 100 nM set to 100%), + agonist (human A2B AR; compound 10 µM in the presence of NECA (100 nM), CHO cells expressing human A2B AR, mean ± SEM): 184.0 ± 11.7 %
O=C(NCc1ccccc1)C(=O)c1csc2ccccc12 [Compound 8, N-Benzyl-2-(benzothien-3-yl)glyoxylamide] | 87 to 89 | inactivity |  | 
O=C(NCc1ccccc1)C(=O)c1cccs1 [Compound 10, N-Benzyl-2-(thien-2-yl)glyoxylamide] | 95.6 to 95.8 | inactivity | 150.6 ± 2.6 | 
N#Cc1c(N)nc(SCC(N)=O)c(C#N)c1-c1ccc(OCC2CC2)cc1 [BAY60-6583, reference compound] |  |  |  | EC50 (MSCs [5]): 6 nM; percentage of mineralisation versus the CTRL set to 100% (MSCs [1]; BAY60-6583 5 nM alone): 129.5 ± 1.9%
Cn1cc(C(=O)C(=O)NCc2ccccc2)c2ccccc21 [Compound 7, N-Benzyl-2-(1-methyl-1H-indol-3-yl)glyoxylamide] | 147 to 149 |  |  | 
